This note sets out measurements from patent publication US20200190062A1, “HETEROCYCLIC COMPOUND AND PHARMACEUTICAL COMPOSITION COMPRISING SAME” (BEYONDBIO INC., priority 2015, published 2020).

The GI50 is the concentration that inhibits growth by half.

Data set [1] in a line: Blood brain barrier permeation. To be noted: male, ICR, mouse, po; for Kp at 1 h / Kp at 4 h: brain/plasma, read-out: B/P ratio. The data set is classed as in vivo, ICR mice. The method, then: Using 9-week-old male ICR mice, the compounds obtained in the above Examples were orally administered once at a dose of 10 mg/kg or 30 mg/kg, and after 1 hr and 4 hrs, the concentrations of the compounds in the blood and brain of the mice were determined. 3 ICR mice were assigned in each group. Plasma was separated from the blood obtained after sacrificing the mice at each time, the brain of the mice was extracted, and the […] was washed with PBS, followed by pulverizing the brain tissue. The blood was placed in a test tube containing heparin to prevent coagulation and then was centrifuged at 12,000 rpm at 4° C. for 3 min to give a supernatant from which plasma was collected. Brain tissue was weighed, and the brain was pulverized using Dounce's homogenizer after adding 3 times as much volume of PBS as the brain weight. Each of the obtained analytical samples was quantitatively analyzed using a tandem liquid chromatography-mass spectrometer (Tandem LC/MS/MS, API3000 & Agilent 1100 series). Brain permeability of a compound is expressed as a value obtained by dividing the concentration of the compound in the brain by the concentration of the compound in the plasma (B/P ratio), and when the B/P ratio is greater than 1, it means that the concentration in the brain is higher than the one in the blood.

In the next data set the test system is Tau protein. Kind of data set: Inhibition of Tau phosphorylation (Western blot, pSer202) in SH-SY5Y cells. The data set is classed as cell-based. As to conditions: 4 hrs. The method, then:
SH-SY5Y cells expressing Tau protein were cultured in DMEM containing 10% FBS. 2.5×10^6 cells were placed in a 6-well plate and incubated at 5% CO2 and 37° C. for 16 hrs. The compounds obtained in the above Examples serially diluted ⅓ from 3 uM to 0.5 nM or the compounds in a concentration of 0.3, 0.1, 0.03, 0.01, 0.003 uM were treated for 4 hrs in DMEM containing 5% FBS. After 4 hrs, the culture solution was removed, washed with PBS, and cells were lysed by adding 100 ul of lysis buffer. The lysis buffer consisted of 50 mM Tris-HCl (pH 7.5), 150 mM NaCl, 5 mM EDT, 1 mM EGTA, 50 mM NaF, 1 mM PMSF, 1 mM Na3VO4, 2.5 mM DTT, 1% Triton X-100, and Protease inhibitor (Pierce). The lysed cells were centrifuged at 10,000 rpm and 4° C. for 10 min and the proteins in the supernatant were quantified. 25 ug of the proteins were electrophoresed on a SDS-PAGE gel and transferred to PVDF (Amersharm) membrane. The PVDF membrane was immersed in T-PBS containing 10% skim milk and shaken for 1 hr at room temperature. The primary antibody, Phosph-Tau[pSer202] (Abcam), diluted 1:1500 in T-PBS solution containing 5% skim milk was reacted with the membrane at room temperature for 2 hrs. The membrane was washed with T-PBS. The secondary antibody, Anti-rabbit IgG HRP, diluted 1:5000 was added to the membrane, reacted at room temperature for 1 hr, and washed.

The next data set concerns NCI-H23. In words: Inhibition of cancer cell proliferation (MTT). As to conditions: Homo sapiens, NCI-H23, 72 h. It is filed as cell-based, human. The procedure, abridged: (§1)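 Cells were seeded at 3000/well (A549, SK-N-SH and SH-SY5Y in DMEM, NCI-H23 in […], all with 10% FBS), allowed to attach for 16 h, then exposed to compounds at 0.004–10 uM for 72 h at 37 °C. MTT formazan was read at 535 nm, and GI50 was calculated relative to 0.08% DMSO controls.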

A further data set concerns A549. Kind of data set: Inhibition of cancer cell proliferation (MTT). It is filed as cell-based, human. To be noted: Homo sapiens, A549, 72 h. The procedure, abridged:
as §1

The test system of a further data set is T98G. In words: Inhibition of cancer cell proliferation (MTT). It is filed as cell-based, human. A digest of the protocol: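 Growth inhibition over 72 h was measured in attached cultures (3000 per well) with 0.08% DMSO as the control. Viable cells were detected with a 2 h MTT step, and the concentration giving 50% inhibition was taken as GI50.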
The mark [2] stands for this setting: brain, 30 mg/kg, oral once 30 mg/kg, read-out: Concentration in the brain.
[3] abbreviates: plasma, 30 mg/kg, oral once 30 mg/kg, read-out: Concentration in the plasma.
Where [4] appears, read: brain, 10 mg/kg, oral once 10 mg/kg, read-out: Concentration in the brain.
Where [5] appears, read: plasma, 10 mg/kg, oral once 10 mg/kg, read-out: Concentration in the plasma.

Structures are written as SMILES. Structures can show the parent of a compound that is named as a salt. Where two headings read alike, the source gives them in different places.

Turning to `Nc1cc(-c2ccc(O)c(-c3ccnc(N)n3)n2)ccn1` [Example 10, 2′-amino-6-(2-aminopyrimidin-4-yl)-[2,4′-bipyridin]-5-ol], the concentration at 1 h in data set [1] (setting [2]) came out at 129 ng/g; in data set [1] (setting [3]), 82.6 ng/mL. For the same compound, the concentration at 4 h in data set [1] (setting [2]) is 23.2 ng/g; in data set [1] (setting [3]) it was 8.3 ng/mL. In addition, the Kp at 1 h in data set [1] (30 mg/kg, oral once 30 mg/kg) came to 1.56. For the same compound, the Kp at 4 h in data set [1] (30 mg/kg, oral once 30 mg/kg) was 2.78. The “Phosphorylation (%) of Tau” value in the data set with Tau protein (0.012 uM) is recorded as 101%; in the data set with Tau protein (0.037 uM), 84%; with Tau protein (0.11 uM) it was 60%; in the data set with Tau protein (0.33 uM), 39%; in the data set with Tau protein (1 uM), 11%; in the data set with Tau protein (3 uM), 13%.

Take `Nc1nccc(-c2ccc(O)c(-c3ccnc(N)n3)n2)n1` [Example 61, 2,6-bis(2-aminopyrimidin-4-yl)pyridin-3-ol 3hydrochloride]: the 50% growth inhibitory concentration (GI50) with NCI-H23 worked out at 430 nM; with A549 it was 210 nM. The concentration at 1 h in data set [1] (setting [4]) was determined as 296 ng/g; in data set [1] (setting [2]), 768 ng/g; in data set [1] (setting [5]) it was 283 ng/mL; in data set [1] (setting [3]) it was 278 ng/mL. The concentration at 4 h in data set [1] (setting [4]) came to 90.3 ng/g; in data set [1] (setting [2]), 577 ng/g; in data set [1] (setting [5]), 86.5 ng/mL; in data set [1] (setting [3]), 129 ng/mL. The Kp at 1 h in data set [1] (10 mg/kg, oral once 10 mg/kg) was 1.05; in data set [1] (30 mg/kg, oral once 30 mg/kg) it was 2.76. Also, the Kp at 4 h in data set [1] (10 mg/kg, oral once 10 mg/kg) amounted to 1.04; in data set [1] (30 mg/kg, oral once 30 mg/kg) it was 4.49.

Take `Nc1nccc(-c2ccc(O)c(-c3ccnc(N)n3)n2)n1` [Example 1, 2,6-bis(2-aminopyrimidin-4-yl)pyridin-3-ol]: the “Phosphorylation (%) of Tau” value in the data set on Tau protein (0.012 uM) was 88%; in the data set with Tau protein (0.037 uM) it was 92%; with Tau protein (0.11 uM), 51%; in the data set on Tau protein (0.33 uM) it was 28%; in the data set with Tau protein (1 uM), 30%; in the data set on Tau protein (3 uM), 25%.

For `Nc1nccc(-c2nc(-c3ccnc(N)c3F)ccc2O)n1` [Example 8], the concentration for 50% growth inhibition (GI50) in the data set on T98G (72 hrs) came to 190 nM. Moreover, the concentration at 1 h in data set [1] (setting [2]) came out at 144 ng/g; in data set [1] (setting [3]), 94.3 ng/mL. Also, the concentration at 4 h in data set [1] (setting [2]) came to 70.9 ng/g; in data set [1] (setting [3]), 29.4 ng/mL. The Kp at 1 h in data set [1] (30 mg/kg, oral once 30 mg/kg) came out at 1.53. Also, the Kp at 4 h in data set [1] (30 mg/kg, oral once 30 mg/kg) was determined as 2.41. Besides, the “Phosphorylation (%) of Tau” value worked out at 40% in the data set on Tau protein (0.0005 uM); 43% in the data set on Tau protein (0.0014 uM); 23% in the data set on Tau protein (0.0041 uM); 0% with Tau protein (0.012 uM); 0% in the data set with Tau protein (0.037 uM); 0% in the data set on Tau protein (0.11 uM).

In the case of `Cc1cc(-c2nc(-c3ccnc(N)c3F)ccc2O)nc(N)n1` [Example 71, 2′-amino-6-(2-amino-6-methylpyrimidin-4-yl)-3′-fluoro-[2,4′-bipyridin]-5-ol 3hydrochloride], the GI50 stood at 40 nM with NCI-H23; 60 nM in the data set with T98G (Homo sapiens, T98G, 72 h); 20 nM in the data set with A549. Besides, the concentration at 1 h in data set [1] (setting [4]) is 3120 ng/g; in data set [1] (setting [5]), 1380 ng/mL. The concentration at 4 h was 165 ng/g in data set [1] (setting [4]) and 52.1 ng/mL in data set [1] (setting [5]). Also, in data set [1] (10 mg/kg, oral once 10 mg/kg), the Kp at 1 h worked out at 2.26. The Kp at 4 h in data set [1] (10 mg/kg, oral once 10 mg/kg) is 3.18. In addition, the “Phosphorylation (%) of Tau” value is listed as 110% with Tau protein (0.003 uM), 101% in the data set with Tau protein (0.01 uM), 35% in the data set on Tau protein (0.03 uM) and 26% in the data set on Tau protein (0.1 uM).
